Literature values in patent US20170143675A1, “FORMULATIONS FOR TREATMENT OF HYPERTHYROIDISM” (DENDROPHARM GMBH, priority 2014, published 2017).
Like-named read-outs stand apart in the source and are kept apart here.

Columns and labels:
cats = conditions: randomized trial

transdermal uptake (after a single dose in PLO): poor
SMILES: Cn1ccnc1S [methimazole, 2-mercapto-1-methylimidazole]
reduction of the serum T4 concentration (chronic transdermal administration in PLO): effective | cats with gastrointestinal side effects (cats; oral administration): 24% | cats with gastrointestinal side effects (cats; transdermal administration in PLO): 4%
